Test results: US9249129B2, “Morpholino substituted urea derivatives as mTOR inhibitors” (CELLZOME LIMITED, priority 2010, dated 2016)

Assays:
Assay in all cases: kinobeads assay with mass spectrometry detection of kinases (kinase selectivity profile)
Format in all cases: binding
[1] = target: T1, kinases (kinome) (Homo sapiens, UniProt Q9H2G2); conditions: SLK (STE), IPI00022827
T1 construct: determined in kinobeads assays with mass spectrometry detection of kinases as described previously; endogenous in cells; host or cells: cell lysate
T1 sequence (Q9H2G2 whole entry): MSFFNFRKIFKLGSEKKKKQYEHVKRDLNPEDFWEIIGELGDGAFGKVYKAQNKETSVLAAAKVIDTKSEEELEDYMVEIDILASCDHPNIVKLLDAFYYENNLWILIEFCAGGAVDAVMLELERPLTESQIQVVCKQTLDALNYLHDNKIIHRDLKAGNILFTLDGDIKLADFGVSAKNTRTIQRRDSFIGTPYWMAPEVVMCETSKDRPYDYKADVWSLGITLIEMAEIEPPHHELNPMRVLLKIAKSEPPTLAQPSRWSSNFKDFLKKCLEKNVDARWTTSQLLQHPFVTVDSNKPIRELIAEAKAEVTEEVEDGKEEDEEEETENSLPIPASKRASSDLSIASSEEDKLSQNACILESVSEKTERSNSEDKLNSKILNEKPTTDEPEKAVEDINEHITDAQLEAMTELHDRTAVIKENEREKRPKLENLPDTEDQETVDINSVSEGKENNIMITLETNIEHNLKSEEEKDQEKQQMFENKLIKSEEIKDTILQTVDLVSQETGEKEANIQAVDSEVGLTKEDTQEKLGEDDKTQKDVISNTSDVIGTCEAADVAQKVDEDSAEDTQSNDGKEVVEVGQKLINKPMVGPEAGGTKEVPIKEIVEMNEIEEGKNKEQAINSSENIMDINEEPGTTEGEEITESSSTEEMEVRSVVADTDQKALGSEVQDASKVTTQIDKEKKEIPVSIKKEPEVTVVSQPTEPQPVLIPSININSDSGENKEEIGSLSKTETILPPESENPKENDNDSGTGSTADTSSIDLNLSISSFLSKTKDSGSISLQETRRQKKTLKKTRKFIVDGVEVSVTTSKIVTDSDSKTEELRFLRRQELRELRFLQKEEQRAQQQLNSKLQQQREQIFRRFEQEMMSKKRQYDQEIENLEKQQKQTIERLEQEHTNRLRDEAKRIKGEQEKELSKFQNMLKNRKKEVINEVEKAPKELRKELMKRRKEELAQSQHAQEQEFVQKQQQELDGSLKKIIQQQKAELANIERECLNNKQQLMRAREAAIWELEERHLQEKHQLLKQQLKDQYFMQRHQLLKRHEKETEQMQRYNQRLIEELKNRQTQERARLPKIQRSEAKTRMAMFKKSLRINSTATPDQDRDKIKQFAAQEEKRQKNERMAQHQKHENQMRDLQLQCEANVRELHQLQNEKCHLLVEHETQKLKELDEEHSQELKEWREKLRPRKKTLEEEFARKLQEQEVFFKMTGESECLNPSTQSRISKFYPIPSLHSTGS
Source text: (§1) The protein kinase complement of the human genome (the kinome) was described previously (Manning et al., 2002. Science 298(5600):1912-1934). Sequence accession numbers are defined by the International Protein Index (IPI) (Kersey et al., 2004. Proteomics 4(7):1985-1988).

[2] = target: T2, kinases (kinome) (Homo sapiens, UniProt Q8N752); conditions: CK1a2 (CK1), IPI00167096
T2 construct: determined in kinobeads assays with mass spectrometry detection of kinases as described previously; endogenous in cells; host or cells: cell lysate
T2 sequence (Q8N752 whole entry): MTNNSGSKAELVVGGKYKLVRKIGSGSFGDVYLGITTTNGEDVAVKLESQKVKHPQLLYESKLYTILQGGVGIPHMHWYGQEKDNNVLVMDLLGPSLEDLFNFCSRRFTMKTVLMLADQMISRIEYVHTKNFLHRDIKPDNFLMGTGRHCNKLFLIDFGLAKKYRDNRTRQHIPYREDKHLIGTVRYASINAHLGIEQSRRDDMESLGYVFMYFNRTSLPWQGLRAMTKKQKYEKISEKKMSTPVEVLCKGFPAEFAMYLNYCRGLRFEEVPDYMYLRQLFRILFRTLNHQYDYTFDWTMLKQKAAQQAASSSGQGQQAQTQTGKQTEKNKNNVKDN
Source text: as §1

[3] = target: T3, kinases (kinome) (Homo sapiens, UniProt P48426); conditions: PIP5K2A (Lipid Kinase), IPI00009688
T3 construct: determined in kinobeads assays with mass spectrometry detection of kinases as described previously; endogenous in cells; host or cells: cell lysate
T3 sequence (P48426 whole entry): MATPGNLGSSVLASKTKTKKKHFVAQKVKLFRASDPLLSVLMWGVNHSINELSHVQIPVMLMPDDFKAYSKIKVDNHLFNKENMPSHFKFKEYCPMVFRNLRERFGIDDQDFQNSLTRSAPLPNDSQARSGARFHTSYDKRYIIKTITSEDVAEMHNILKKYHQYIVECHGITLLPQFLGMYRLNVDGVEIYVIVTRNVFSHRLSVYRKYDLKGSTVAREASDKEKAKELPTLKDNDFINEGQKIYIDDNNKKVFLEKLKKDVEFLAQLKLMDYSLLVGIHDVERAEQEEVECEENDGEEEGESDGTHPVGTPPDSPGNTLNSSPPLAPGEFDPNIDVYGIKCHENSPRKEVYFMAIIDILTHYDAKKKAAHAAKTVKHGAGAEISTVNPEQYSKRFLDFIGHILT
Source text: as §1

[4] = target: T4, kinases (kinome) (Homo sapiens, UniProt Q13873); conditions: BMPR2 (TKL), IPI00783156
T4 construct: determined in kinobeads assays with mass spectrometry detection of kinases as described previously; endogenous in cells; host or cells: cell lysate
T4 sequence (Q13873 27-1038): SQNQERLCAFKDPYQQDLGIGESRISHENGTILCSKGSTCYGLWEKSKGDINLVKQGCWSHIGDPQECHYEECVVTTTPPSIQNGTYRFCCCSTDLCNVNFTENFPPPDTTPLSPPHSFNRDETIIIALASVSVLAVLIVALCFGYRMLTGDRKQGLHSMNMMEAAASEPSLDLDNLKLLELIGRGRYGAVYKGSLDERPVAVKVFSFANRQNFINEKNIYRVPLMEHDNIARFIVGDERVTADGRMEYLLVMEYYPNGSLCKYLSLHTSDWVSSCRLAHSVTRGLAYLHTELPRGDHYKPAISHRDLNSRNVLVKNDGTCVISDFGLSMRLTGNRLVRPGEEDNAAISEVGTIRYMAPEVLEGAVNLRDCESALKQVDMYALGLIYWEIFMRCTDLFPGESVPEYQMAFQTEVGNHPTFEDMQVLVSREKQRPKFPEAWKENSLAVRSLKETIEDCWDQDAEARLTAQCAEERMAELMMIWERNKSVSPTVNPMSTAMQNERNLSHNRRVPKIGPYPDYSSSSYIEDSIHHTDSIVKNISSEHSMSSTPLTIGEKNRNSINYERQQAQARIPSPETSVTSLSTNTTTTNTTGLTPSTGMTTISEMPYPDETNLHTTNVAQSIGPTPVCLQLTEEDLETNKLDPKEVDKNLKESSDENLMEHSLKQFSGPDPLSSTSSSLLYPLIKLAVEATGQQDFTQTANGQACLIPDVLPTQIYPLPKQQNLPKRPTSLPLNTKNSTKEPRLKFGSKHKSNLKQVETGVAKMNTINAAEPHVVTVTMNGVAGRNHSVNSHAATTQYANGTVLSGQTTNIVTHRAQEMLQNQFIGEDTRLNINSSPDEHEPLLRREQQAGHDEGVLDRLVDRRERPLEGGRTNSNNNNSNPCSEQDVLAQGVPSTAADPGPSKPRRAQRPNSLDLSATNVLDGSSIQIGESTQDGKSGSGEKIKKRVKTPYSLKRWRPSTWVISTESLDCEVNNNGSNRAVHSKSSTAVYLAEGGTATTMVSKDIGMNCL
Source text: as §1

[5] = target: T5, kinases (kinome) (Homo sapiens, UniProt Q9UQM7); conditions: CaMK2a (CAMK), IPI00550056
T5 construct: determined in kinobeads assays with mass spectrometry detection of kinases as described previously; endogenous in cells; host or cells: cell lysate
T5 sequence (Q9UQM7 whole entry): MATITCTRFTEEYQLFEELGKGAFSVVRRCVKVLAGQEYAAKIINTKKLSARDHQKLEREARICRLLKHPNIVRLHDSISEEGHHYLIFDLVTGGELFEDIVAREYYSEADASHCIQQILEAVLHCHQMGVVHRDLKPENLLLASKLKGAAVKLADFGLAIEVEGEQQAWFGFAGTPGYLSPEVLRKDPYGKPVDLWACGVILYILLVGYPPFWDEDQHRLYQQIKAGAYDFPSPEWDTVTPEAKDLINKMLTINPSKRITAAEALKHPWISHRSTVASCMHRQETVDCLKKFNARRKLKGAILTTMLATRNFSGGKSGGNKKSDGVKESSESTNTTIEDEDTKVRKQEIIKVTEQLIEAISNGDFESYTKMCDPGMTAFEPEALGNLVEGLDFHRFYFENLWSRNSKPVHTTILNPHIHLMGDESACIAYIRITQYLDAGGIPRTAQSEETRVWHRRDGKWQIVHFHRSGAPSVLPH
Source text: as §1

C[C@H]1COCCN1c1nc(-c2ccc(NC(=O)NC3CC3)cc2)cc(-c2ccccc2S(C)(=O)=O)n1 [Example 4, (S)-1-cyclopropyl-3-(4-(2-(3-methylmorpholino)-6-(2-(methylsulfonyl)phenyl)pyrimidin-4-yl)phenyl)urea]
IC50 [1]: > 10 µM

C[C@H]1COCCN1c1nc(-c2ccc(NC(=O)NC3CC3)cc2)cc(-c2cc(F)ccc2S(C)(=O)=O)n1 [Example 40, (S)-1-cyclopropyl-3-(4-(6-(5-fluoro-2-(methylsulfonyl)phenyl)-2-(3-methylmorpholino)pyrimidin-4-yl)phenyl)urea]
IC50 [2]: > 10 µM | IC50 [3]: > 10 µM | IC50 [4]: > 10 µM

CCNC(=O)Nc1ccc(-c2cc(-c3ccccc3C#N)nc(N3CCOC[C@@H]3C)n2)cc1 [Example 8, (S)-1-(4-(6-(2-cyanophenyl)-2-(3-methylmorpholino)pyrimidin-4-yl)phenyl)-3-ethylurea]
IC50 [5]: > 10 µM
